The format of this data set is in vivo, Male Sprague-Dawley rats. The conditions noted are these: rats, iv. On the procedure:
Male Sprague-Dawley rats (225-300 g) allowed free access to food and water were used for in vivo biodistribution studies. Kung, 1984, supra; Kung, 1985, supra. While under ether anesthesia, 0.2 mL of a saline solution containing 1.19a, 1.19b, 1.20a, 1.20b or 1.21 (50-100 μCi) was injected directly into the femoral vein of rats, and the rats were sacrificed by cardiac excision at various time points post-injection. The organs of interest were removed and weighed, and the radioactivity was counted with an automatic gamma counter (Packard 5000). The percentage dose per organ was calculated by a comparison of the tissue counts to suitably diluted aliquots of the injected material. Total activities of blood and muscle were calculated under the assumption that they were 7% and 40% of the total body weight, respectively.
The major criteria for determining the potential usefulness of in vivo dopamine transporter imaging agents are based on an animal biodistribution study. In this case, rats were used as an animal model. After an intravenous injection of the Tc-99m labeled compounds, the values of initial brain uptake (% dose/whole organ) at 2 minutes post intravenous injection are used to measure the ability to penetrate the intact blood-brain barrier. Compounds displaying higher brain uptake are the better agents (minimum requirement >0.1% dose in brain). The second criteria is the specific uptake in the striatum region of the brain, where dopamine transporters are located. The uptake value (% dose/gram) of the striatum (ST) is divided by the background area, cerebellum (CB; essentially devoid of dopamine transporter); the ratio of ST/CB is an indicator for specific uptake (minimum requirement for ST/CB >1.5). Five structurally similar tropane derivatives were examined in this biological study. (Tables 1.1 to 1.4).
Male Sprague-Dawley rats (225-300 g) that were allowed free access to food and water were used for in vivo biodistribution studies. (Kung, 1984, supra; Kung, 1985, supra). While under halothane anesthesia, 0.2 mL of a saline solution containing 3.24 to 3.34 ([…]) was injected directly into the femoral vein of rats, and they were sacrificed by cardiac excision at various time points post-injection. The organs of interest were removed and weighed, and the radioactivity was counted with an automatic gamma counter (Packard 5000). The percentage dose per organ was calculated by a comparison of the tissue counts to suitably diluted aliquots of the injected material. Total activities of blood and muscle were calculated under the assumption that they were 7% and 40% of the total body weight, respectively.

Each structure is given as a SMILES string.

In the case of `COC(=O)[C@H]1[C@@H](c2ccc(Cl)cc2)C[C@@H]2CC[C@H]1N2CCC[N+]12CC[S][99Tc-]13(=[O])[S]CC[N]3CC2` (single isomer, unassigned; peak a) [peak A of (2.6a)], the “Blood uptake, 2 min” value amounted to 2.41 ± 0.33 % dose/organ; the “Brain uptake, 2 min” value is given as 0.25 ± 0.04 % dose/organ; the “Heart uptake, 2 min” value is reported as 0.79 ± 0.03 % dose/organ; the “Kidney uptake, 2 min” value turned out to be 2.97 ± 0.09 % dose/organ. For the same compound, the “Liver uptake, 2 min” value stood at 14.29 ± 2.56 % dose/organ; the “Lung uptake, 2 min” value is 15.63 ± 2.31 % dose/organ; the “Muscle uptake, 2 min” value is reported as 7.78 ± 0.32 % dose/organ; the “Skin uptake, 2 min” value is on record as 1.59 ± 0.68 % dose/organ. Further, the “Spleen uptake, 2 min” value was 0.42 ± 0.10 % dose/organ; the “Blood uptake, 30 min” value came to 1.16 ± 0.06 % dose/organ; the “Brain uptake, 30 min” value was determined as 0.13 ± 0.02 % dose/organ; the “Heart uptake, 30 min” value is 0.22 ± 0.02 % dose/organ. In addition, the “Kidney uptake, 30 min” value was 1.25 ± 0.11 % dose/organ; the “Liver uptake, 30 min” value worked out at 20.87 ± 2.23 % dose/organ; the “Lung uptake, 30 min” value is recorded as 9.65 ± 1.37 % dose/organ; the “Muscle uptake, 30 min” value was determined as 10.41 ± 1.26 % dose/organ. Further, the “Skin uptake, 30 min” value is on record as 5.69 ± 0.73 % dose/organ and the “Spleen uptake, 30 min” value was determined as 0.42 ± 0.05 % dose/organ.
Take `COC(=O)[C@H]1[C@@H](c2ccc(Cl)cc2)C[C@@H]2CC[C@H]1N2CCC[N+]12CC[S][99Tc-]13(=[O])[S]CC[N]3CC2` (single isomer, unassigned; peak b) [peak B of (2.6a)]: the “Blood uptake, 2 min” value was 3.96 ± 0.70 % dose/organ; the “Brain uptake, 2 min” value is listed as 0.19 ± 0.041 % dose/organ; the “Heart uptake, 2 min” value was determined as 0.70 ± 0.21 % dose/organ; the “Kidney uptake, 2 min” value is listed as 2.03 ± 0.45 % dose/organ. Also, the “Liver uptake, 2 min” value is 19.56 ± 3.21 % dose/organ; the “Lung uptake, 2 min” value was found to be 19.16 ± 2.06 % dose/organ; the “Muscle uptake, 2 min” value came to 9.92 ± 1.04 % dose/organ; the “Skin uptake, 2 min” value turned out to be 1.25 ± 0.17 % dose/organ. Further, the “Spleen uptake, 2 min” value came to 0.42 ± 0.10 % dose/organ; the “Blood uptake, 30 min” value stood at 1.82 ± 0.43 % dose/organ; the “Brain uptake, 30 min” value turned out to be 0.094 ± 0.026 % dose/organ; the “Heart uptake, 30 min” value was determined as 0.24 ± 0.08 % dose/organ. Also, the “Kidney uptake, 30 min” value stood at 1.24 ± 0.18 % dose/organ; the “Liver uptake, 30 min” value worked out at 28.57 ± 2.94 % dose/organ; the “Lung uptake, 30 min” value was determined as 12.51 ± 1.46 % dose/organ; the “Muscle uptake, 30 min” value was 8.09 ± 1.686 % dose/organ. Further, the “Skin uptake, 30 min” value turned out to be 3.25 ± 0.76 % dose/organ and the “Spleen uptake, 30 min” value was 0.67 ± 0.17 % dose/organ.

For the origin of these results see patent US6241963A, “Dopamine and serotonin transporter ligands and imaging agents” (priority 1996, dated 2001).
